What all share (assay): relative viability (nuclei count vs DMSO), 5 days (fraction); higher = more cells survive
Compound in experiment [1]: CS(=O)(=O)c1ccc(C(=O)Nc2ccc(Cl)c(-c3ccccn3)c2)c(Cl)c1 [Vismodegib] + Nc1nc2[nH]cc(CCc3ccc(C(=O)N[C@@H](CCC(=O)O)C(=O)O)cc3)c2c(=O)[nH]1 [Pemetrexed] (partner 0.2 µM)
In short, it runs like this: (§1)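 A single step with final 0.05% Triton X-100, 1% formaldehyde and 1 ug/ml Hoechst fixed the cells and stained nuclei 5 days after treatment. Lung cancer cell lines in 1536-well plates had been treated by pin tool the day after seeding with one drug alone or a fixed anchor-drug dose plus five library-drug doses (not always all listed) in √10 steps, and nuclei were counted on 4× images. Relative viability is the ratio of nuclei in treated wells to nuclei in vehicle wells, taken as the median of duplicate plates.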

Compound in experiment [2]: N#CC[C@H](C1CCCC1)n1cc(-c2ncnc3[nH]ccc23)cn1 [Ruxolitinib] + COc1cccc2cc(-c3nc([C@H]4CC[C@H](C(=O)O)CC4)n4ncnc(N)c34)[nH]c12 [OSI-027] (partner 0.5 µM)
In outline:
as §1

Compound in experiment [3]: CS(=O)(=O)c1ccc(-c2cnc(N)c(C(=O)Nc3ccccc3)n2)cc1 [VE-821] + CC(C)C[C@H](NC(=O)[C@H](Cc1ccccc1)NC(=O)c1cnccn1)B(O)O [Bortezomib] (partner 0.002 µM)
In outline:
as §1

Compound in experiment [4]: CS(=O)(=O)c1ccc(-c2cnc(N)c(C(=O)Nc3ccccc3)n2)cc1 [VE-821] + C[C@]1(O)C[C@@H](c2nc(-c3ccc4ccc(-c5ccccc5)nc4c3)c3c(N)nccn32)C1 [Linsitinib] (partner 1 µM)
In short, it runs like this:
as §1

Consider 201T, for which the relative viability in experiment [1] (first compound 0.08 µM) turned out to be 0.323; in experiment [1] (first compound 0.253 µM), 0.354; in experiment [1] (first compound 0.8 µM), 0.336; in experiment [1] (first compound 2.53 µM), 0.335; in experiment [1] (first compound 8 µM), 0.297; in experiment [2] (first compound 0.08 µM) it was 0.768. Also, the relative viability in experiment [2] (first compound 0.253 µM) stood at 0.722; in experiment [2] (first compound 0.8 µM), 0.809; in experiment [2] (first compound 2.53 µM) it was 0.919; in experiment [2] (first compound 8 µM), 0.905; in experiment [3] (first compound 0.08 µM), 1.11; in experiment [3] (first compound 0.253 µM), 1.06. In addition, the relative viability in experiment [3] (first compound 0.8 µM) turned out to be 1.07; in experiment [3] (first compound 2.53 µM), 1.07; in experiment [3] (first compound 8 µM), 1.06; in experiment [4] (first compound 0.08 µM), 0.975; in experiment [4] (first compound 0.253 µM) it was 0.941; in experiment [4] (first compound 0.8 µM), 0.956. In addition, the relative viability in experiment [4] (first compound 2.53 µM) was determined as 0.968; in experiment [4] (first compound 8 µM), 0.818.

With A549, the relative viability in experiment [4] (first compound 0.08 µM) worked out at 0.623; in experiment [4] (first compound 0.253 µM), 0.597; in experiment [4] (first compound 0.8 µM), 0.43; in experiment [4] (first compound 2.53 µM), 0.599; in experiment [4] (first compound 8 µM) it was 0.406.

Regarding A-427, the relative viability was found to be 1.08 in experiment [1] (first compound 0.08 µM); 0.939 in experiment [1] (first compound 0.253 µM); 0.912 in experiment [1] (first compound 0.8 µM); 1.01 in experiment [1] (first compound 2.53 µM); 0.902 in experiment [1] (first compound 8 µM); 0.434 in experiment [2] (first compound 0.08 µM). Also, the relative viability in experiment [2] (first compound 0.253 µM) amounted to 0.465; in experiment [2] (first compound 0.8 µM) it was 0.566; in experiment [2] (first compound 2.53 µM), 0.364; in experiment [2] (first compound 8 µM), 0.439; in experiment [3] (first compound 0.08 µM), 0.964; in experiment [3] (first compound 0.253 µM), 0.937. Also, the relative viability is 0.906 in experiment [3] (first compound 0.8 µM); 0.93 in experiment [3] (first compound 2.53 µM); 0.695 in experiment [3] (first compound 8 µM); 1.18 in experiment [4] (first compound 0.08 µM); 1.12 in experiment [4] (first compound 0.253 µM); 1.06 in experiment [4] (first compound 0.8 µM). For the same cell line, the figures for the relative viability in experiment [4] (first compound 2.53 µM) and in experiment [4] (first compound 8 µM) were 1.08 and 0.894, respectively.

As for ABC-1, the relative viability in experiment [2] (first compound 0.253 µM) was 0.379; in experiment [2] (first compound 0.8 µM), 0.83; in experiment [2] (first compound 2.53 µM) it was 0.455; in experiment [2] (first compound 8 µM) it was 0.539; in experiment [3] (first compound 0.08 µM) it was 0.333; in experiment [3] (first compound 0.253 µM), 0.335. Moreover, the relative viability in experiment [3] (first compound 0.8 µM) was found to be 0.288; in experiment [3] (first compound 2.53 µM) it was 0.368; in experiment [3] (first compound 8 µM) it was 0.307; in experiment [4] (first compound 0.08 µM), 0.819; in experiment [4] (first compound 0.253 µM) it was 0.699; in experiment [4] (first compound 0.8 µM), 0.567. In addition, the figures for the relative viability in experiment [4] (first compound 2.53 µM) and in experiment [4] (first compound 8 µM) were 0.798 and 0.423, respectively.

BEN: the relative viability was 0.679 in experiment [1] (first compound 0.08 µM); 0.682 in experiment [1] (first compound 0.253 µM); 0.784 in experiment [1] (first compound 0.8 µM); 0.754 in experiment [1] (first compound 2.53 µM); 0.737 in experiment [1] (first compound 8 µM); 0.336 in experiment [2] (first compound 0.08 µM). Moreover, the relative viability in experiment [2] (first compound 0.253 µM) came to 0.299; in experiment [2] (first compound 0.8 µM), 0.304; in experiment [2] (first compound 2.53 µM) it was 0.266; in experiment [2] (first compound 8 µM), 0.267; in experiment [3] (first compound 0.08 µM), 0.872; in experiment [3] (first compound 0.253 µM) it was 0.759. The relative viability was 0.992 in experiment [3] (first compound 0.8 µM); 1.03 in experiment [3] (first compound 2.53 µM); 0.712 in experiment [3] (first compound 8 µM); 0.967 in experiment [4] (first compound 0.08 µM); 0.871 in experiment [4] (first compound 0.253 µM); 0.793 in experiment [4] (first compound 0.8 µM). Further, the figures for the relative viability in experiment [4] (first compound 2.53 µM) and in experiment [4] (first compound 8 µM) were 0.911 and 0.753, respectively.

Take CAL-12T: the relative viability in experiment [1] (first compound 0.08 µM) turned out to be 1.12; in experiment [1] (first compound 0.253 µM), 1.13; in experiment [1] (first compound 0.8 µM), 1.13; in experiment [1] (first compound 2.53 µM) it was 1.14; in experiment [1] (first compound 8 µM), 1.13; in experiment [2] (first compound 0.08 µM) it was 0.598. The relative viability in experiment [2] (first compound 0.253 µM) is 0.623; in experiment [2] (first compound 0.8 µM), 0.812; in experiment [2] (first compound 2.53 µM), 0.524; in experiment [2] (first compound 8 µM) it was 0.442; in experiment [3] (first compound 0.08 µM) it was 1.04; in experiment [3] (first compound 0.253 µM) it was 0.984. Besides, the relative viability is 1.13 in experiment [3] (first compound 0.8 µM); 0.996 in experiment [3] (first compound 2.53 µM); 0.717 in experiment [3] (first compound 8 µM); 0.94 in experiment [4] (first compound 0.08 µM); 0.805 in experiment [4] (first compound 0.253 µM); 0.725 in experiment [4] (first compound 0.8 µM). Further, the figures for the relative viability in experiment [4] (first compound 2.53 µM) and in experiment [4] (first compound 8 µM) were 0.891 and 0.956, respectively.

With COR-L23, the relative viability was 0.195 in experiment [1] (first compound 0.08 µM); 0.19 in experiment [1] (first compound 0.253 µM); 0.184 in experiment [1] (first compound 0.8 µM); 0.195 in experiment [1] (first compound 2.53 µM); 0.207 in experiment [1] (first compound 8 µM); 0.806 in experiment [2] (first compound 0.08 µM). Besides, the relative viability in experiment [2] (first compound 0.253 µM) is 0.743; in experiment [2] (first compound 0.8 µM) it was 0.868; in experiment [2] (first compound 2.53 µM), 0.729; in experiment [2] (first compound 8 µM), 0.645; in experiment [3] (first compound 0.08 µM), 1.1; in experiment [3] (first compound 0.253 µM) it was 0.997. In addition, the relative viability in experiment [3] (first compound 0.8 µM) was 1.06; in experiment [3] (first compound 2.53 µM), 1; in experiment [3] (first compound 8 µM), 1.06; in experiment [4] (first compound 0.08 µM), 0.958; in experiment [4] (first compound 0.253 µM), 0.897; in experiment [4] (first compound 0.8 µM), 1.16. Moreover, the relative viability in experiment [4] (first compound 2.53 µM) came to 0.964; in experiment [4] (first compound 8 µM) it was 0.719.

COR-L 105: the relative viability in experiment [1] (first compound 0.08 µM) stood at 1.03; in experiment [1] (first compound 0.253 µM) it was 1.16; in experiment [1] (first compound 0.8 µM), 1.08; in experiment [1] (first compound 2.53 µM), 1.03; in experiment [1] (first compound 8 µM), 1.16; in experiment [2] (first compound 0.08 µM) it was 0.535. Further, the relative viability is 0.536 in experiment [2] (first compound 0.253 µM); 0.705 in experiment [2] (first compound 0.8 µM); 0.667 in experiment [2] (first compound 2.53 µM); 0.531 in experiment [2] (first compound 8 µM); 0.746 in experiment [3] (first compound 0.08 µM); 0.841 in experiment [3] (first compound 0.253 µM). In addition, the relative viability in experiment [3] (first compound 0.8 µM) was 0.677; in experiment [3] (first compound 2.53 µM) it was 0.738; in experiment [3] (first compound 8 µM), 0.467; in experiment [4] (first compound 0.08 µM), 0.944; in experiment [4] (first compound 0.253 µM), 0.885; in experiment [4] (first compound 0.8 µM), 0.75. In addition, the results for the relative viability in experiment [4] (first compound 2.53 µM) and in experiment [4] (first compound 8 µM) were 0.776 and 0.496, respectively.

Regarding Calu-6, the relative viability amounted to 0.945 in experiment [3] (first compound 0.08 µM); 0.907 in experiment [3] (first compound 0.253 µM); 0.891 in experiment [3] (first compound 0.8 µM); 0.937 in experiment [3] (first compound 2.53 µM); 0.429 in experiment [3] (first compound 8 µM); 1 in experiment [4] (first compound 0.08 µM). In addition, the relative viability turned out to be 0.839 in experiment [4] (first compound 0.253 µM), 0.83 in experiment [4] (first compound 0.8 µM), 1.13 in experiment [4] (first compound 2.53 µM) and 0.942 in experiment [4] (first compound 8 µM).

Values taken from the supplement of paper PMC10307832.
